The star is where a group is joined. FITC = O=C1OC2(c3ccc(O)cc3Oc3cc(O)ccc32)c2ccc(NC(=S)*)cc21

Data set [1] relates to tubulin. Particulars: tubulin mix with GTP, 30 min at 37° C., 561 nm channel.
Procedure: Hexapeptide ‘NV’-Tubulin Interaction Study on Biotin Micropatterned Surface
Biotin micropatterned surfaces were prepared as previously described method. A flow chamber of around 5 μL was built from one biotin-patterned glass surface and one poly-L-lysine (PLL)-PEG passivated counter glass, separated by two strips of double sticky tape (Tesa). Flow chamber was equilibrated with BRB80 and incubated with β-casein for 10 min followed by washing with 20 μL BRB80 for complete removal of unbound β-casein. 100 nM neutravidin was flowed into the flow chamber and incubated for 10 min followed by removal of excess neutravidin with 20 μL BRB80. […] Then, the flow chamber was filled with 18.5 μM tubulin mix (80:20 unlabeled tubulin and Alexa568 tubulin) in BRB80 supplemented with 3 mM GTP, 10 mM MgCl2, and an oxygen scavenger system (50 mM glucose, 1 mg mL^−1 glucose oxidase, and 0.5 mg mL^−1 catalase) on an ice cold metal block and placed to the TIRF microscope at 37° C. Then flow chamber was imaged using an IX-81 total internal reflection fluorescence (TIRF) microscope (Olympus) with a 60×TIRFM objective (Olympus; Hamburg, Germany) and an Andor iXon3 897 Camera. Control experiment was performed, following previously described method without immobilizing ‘Bio-NV’ on biotin micropatterned surface.
The test system of data set [2] is neuronally differentiated PC12 cells. Kind of data set: Neuroprotection against anti-NGF toxicity (NGF deprivation), intact nuclear counting. It counts as cell-based, rat. Particulars: higher concentrations of NV. The procedure:
On the fifth day they were treated overnight with anti-NGF along with different doses of inhibitor NV (FIG. 4d). […] The cells were observed under the microscope on the day following treatment; survival was assessed by intact nuclear counting assay (FIG. 4d).
Rat pheochromocytoma cells (PC12) cells were cultured as described previously (ESI) in RPMI medium supplemented with 10% heat-inactivated horse serum (HS) and 5% heat-inactivated fetal bovine serum. Neuronal differentiation of these cells was induced by NGF (100 ng/mL) in medium containing 1% horse serum for 6 days before the treatment, as previously described.
The cell viability was checked by the intact nuclear counting method. This assay was performed as described previously. In brief, a detergent containing the buffer that dissolved only the plasma membrane was added to the cells, the nuclear membrane thus remained intact. The intact nuclei were then counted on a haemocytometer under a light microscope. The number of live cells was expressed as percentage of the total cell population.

The test system of data set [3] is amyloid beta. Particulars: previous study; cited from earlier work.
The subject of data set [4] is tau. Particulars: previous study; cited from earlier work.
Data set [5] deals with polymerized microtubules. Description: FITC-NV binding with microtubule at tubulin polymerization. Particulars: FITC-NV during polymerization of alexa-568 labeled tubulin with GTP. How it is done:
Hexapeptide NV Binding with Microtubule at Tubulin Polymerization
Mixture 1: Alexa Fluor 568-labeled tubulin (0.5 μL, 15 mg mL^−1, 65% labelling ratio), Tubulin (2 μL, 20 mg mL^−1), FITC-NV (0.5 μL, 1 mM), GTP (0.2 μL, […]) and BRB80 (46.8 μL; 80 mM PIPES, 1 mM EGTA; 1 mM MgCl2, pH adjusted to 6.8 by using concentrated KOH solution) were mixed on ice. The mixture was incubated for 30 min on 37° C. water bath.
Mixture 2: Taxol (0.4 μL, 1 mM) and BRB80 (180 μL) were mixed.
Final Mixture: After 30 min incubation 50 μL warmed mixture 2 was added into mixture 1. Then this mixture was separated in a table top centrifuge (7 min, 12000 rpm, Eppendorf 5810R bench-top centrifuge, rotor type F-34-6-38). The coloured pellet was resuspended in warm mixture 2. 10 μL resuspended solution of microtubule was placed on glass cover slip and imaged under inverted fluorescence microscope (NIKON Ti-U) in 40× magnification using ANDOR iXON3 camera.

Take Biotin-NAPVSIPQ-NH2 [Biotin-NV]: the “binding of tubulin to immobilized Biotin-NV on micropatterns” value in data set [1] is recorded as “localized binding of tubulin”.

In the case of H-NAVSIQ-NH2 [NV, NH2-NAVSIQ-NH2], in data set [2], the “toxicity to control cells” value was “showed toxicity to control cells”.

For NH2-NAPVSIPQ-NH2 [NQ], the “inhibition of amyloid beta fibrillation in vitro” value in data set [3] is “inhibits amyloid beta fibrillation in vitro”. Moreover, in data set [4], the “inhibition of tau hyper phosphorylation in vivo” value is “inhibit tau hyper phosphorylation in vivo”.

Regarding {FITC}-NAVSIQ-NH2 [FITC-NV], the “binding with polymerized microtubules” value in data set [5] is on record as “binds with polymerized microtubules”.

The values above are taken from patent US10100082B2, “Hexapeptide for neuroprotection against a β toxicity” (Council of Scientific and Industrial Research, priority 2016, dated 2018).
